# Results reported in patent US5071857A, “2,6-dioxopiperidine derivatives, their preparation and pharmaceutical compositions containing them” (National Research Development Corporation, priority 1983, dated 1991).
# Read-outs that look alike come from different tables or passages of the source.
# Experiments:
# [1] = target: T1, desmolase (Bos taurus, UniProt P00189); experiment: Inhibition of desmolase (mitochondrial fraction of bovine adrenal cortex, 14C-isocaproic acid release from (26-14C)-cholesterol); format: biochemical
# T1 construct: The mitochondrial fraction of bovine adrenal cortex provided the source of desmolase; from tissue; host or cells: bovine adrenal cortex, mitochondrial fraction
# T1 sequence (P00189 40-520): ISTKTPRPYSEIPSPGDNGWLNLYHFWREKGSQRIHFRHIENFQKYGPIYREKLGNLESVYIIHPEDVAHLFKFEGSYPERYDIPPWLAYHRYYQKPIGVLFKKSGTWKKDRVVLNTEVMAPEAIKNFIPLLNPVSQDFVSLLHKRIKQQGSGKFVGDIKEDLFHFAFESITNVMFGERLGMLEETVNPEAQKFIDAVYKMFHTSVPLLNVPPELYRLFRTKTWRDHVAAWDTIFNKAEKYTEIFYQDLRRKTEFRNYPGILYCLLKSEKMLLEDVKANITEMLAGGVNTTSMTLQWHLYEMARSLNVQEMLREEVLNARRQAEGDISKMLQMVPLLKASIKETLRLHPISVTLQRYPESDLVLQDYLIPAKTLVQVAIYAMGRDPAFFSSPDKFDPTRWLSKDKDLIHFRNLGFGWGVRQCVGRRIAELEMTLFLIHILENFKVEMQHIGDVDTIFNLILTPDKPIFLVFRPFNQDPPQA
# [2] = target: T2, aromatase (Homo sapiens, UniProt P11511); experiment: Inhibition of aromatase (microsomal fraction of human placental tissue, 3H2O release from (1,2-3H) testosterone); format: biochemical
# T2 construct: Aromatase was obtained from the microsomal fraction of human placental tissue; from tissue; host or cells: human placenta, microsomal fraction
# T2 sequence (P11511 1-503): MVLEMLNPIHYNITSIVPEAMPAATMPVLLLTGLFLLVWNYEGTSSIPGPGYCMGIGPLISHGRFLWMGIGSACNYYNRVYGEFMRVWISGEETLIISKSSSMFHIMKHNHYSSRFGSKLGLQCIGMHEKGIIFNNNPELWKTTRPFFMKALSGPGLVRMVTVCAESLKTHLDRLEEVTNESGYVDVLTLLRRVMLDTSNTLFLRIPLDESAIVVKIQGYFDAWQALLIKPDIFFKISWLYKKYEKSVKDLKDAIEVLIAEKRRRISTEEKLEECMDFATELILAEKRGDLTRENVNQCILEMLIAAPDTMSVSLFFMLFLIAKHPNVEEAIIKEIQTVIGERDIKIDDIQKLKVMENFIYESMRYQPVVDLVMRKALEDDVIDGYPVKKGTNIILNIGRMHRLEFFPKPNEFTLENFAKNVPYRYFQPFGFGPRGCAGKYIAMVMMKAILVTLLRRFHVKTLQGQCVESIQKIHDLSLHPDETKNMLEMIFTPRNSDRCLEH
# Protocol: The activity of various glutarimides against the enzymes aromatase and desmolase was assayed as follows. Each compound was examined over a range of concentrations. At each concentration of inhibitor, samples were removed at three time points. The results were plotted on a graph of product released against time of incubation. The resulting linear graph was used to determine the rate of enzyme reaction at each concentration of inhibitor.
# A. Desmolase The mitochondrial fraction of bovine adrenal cortex provided the source of desmolase and the method of isolation was essentially as published by R. B. Hochberg et al., Biochemistry, 13, 603 (1974). The enzyme activity was assayed using (26-^14 C)-cholesterol as substrate and measuring the ^14 C-isocaproic acid released, see R. B. Hochberg et al., supra. and V. I. Uzgiris et al., Endocrinology, 101, 89 (1977). Inhibitor compounds were added in ethanol (microliters) and an equal volume of ethanol was added to the control assay. The total volume of the assay mixture was 1.0 ml. After preincubating the assay tubes at 30° C. for 5 minutes, the reaction was started by the addition of 1 mg of mitochondrial protein. Samples were removed after 2,4 and 6 minutes of incubation and the assay completed as described.
# [3] = prior art; cited from earlier work
# [4] = test system: central nervous system; experiment: Studies on anticonvulsant properties, pentylenetetrazol-induced convulsions; settings: for prevention of pentylenetetrazol-induced convulsions: pentylenetetrazol 50 mg/kg
# [5] = Stability of injection solutions at pH 3.5-4; format: physicochemical
# Protocol: This went into solution at low pH very nicely. M NaOH was added to pH 3.5-4. The volume was made up using deionized water.
# [6] = test system: Rat mammary tumours induced with MNU (N-methyl-N-nitrosourea); experiment: Tests in vivo on tumour regression, MNU-induced rat mammary tumours; parameters: species or system rat (Ludwig Wistar/Ola, WF/ICRF/Ola, female); settings: for percentage of tumours which regress (in words): 42 days; for percentage of tumours which regress (in words) / No. tumours grown by more than 100% / No. tumours grown by up to 100% / No. tumours regressed but by less than 50% / No. tumours regressed by 50% or more / No. tumours with no change: 0.165 millimoles/kg/day s.c.; for No. tumours grown by more than 100% / No. tumours grown by up to 100% / No. tumours regressed but by less than 50% / No. tumours regressed by 50% or more / No. tumours with no change: after 6 weeks (42 days)
# Protocol: Unlike DMBA (7,12-dimethylbenz[a]anthracene) induced tumours, MNU tumours may be primarily oestrogen-, rather than prolactin-dependent, see Pruitt, Rose and Bryan, Proc. Ann. Cancer Res. 20, 87, (1979).
# Using the method of Williams et al., supra, mammary tumours were induced in virgin female rats of the inbred strain Ludwig Wistar/Ola (WF/ICRF/Ola) by intravenous administration of MNU. MNU was dissolved in 0.9% aqueous sodium chloride solution acidified to pH 5 with acetic acid. Starting at age 50 days, each rat received 3 injections at 14 day intervals via the tail vein (5 mg MNU/100 g body weight/injection; injection volume of 0.5 ml/rat). Animals were assigned to experimental groups at 125-140 days after the first injection, with 12 animals in each group. At this time they bore from 1-3 tumours per animal.
# Controls received equivalent injections of DMSO alone.
# Results were expressed in terms of the percentage of initial tumour volume for each tumour after 42 day, treatment.
# [7] = test system: central nervous system; experiment: Rotating rod experiments (rotarod test), drug-induced ataxia; settings: for time of peak effect after injection: i.p.
# [8] = test system: central nervous system; experiment: Behavioral observations (Irwin observational assessment); settings: for Passivity: rating 0-4, 20-30 minutes after injection
# [9] = test system: desmolase; settings: background; cited from earlier work
# [10] = 1.5 micromolar (3H) testosterone
# [11] = compared with aminoglutethimide
structure (smiles),measurement,setting,value
"CCC1(c2ccccc2)CCC(=O)N(N)C1=O (stereo not shown) [N-aminoglutethimide, 1-amino-3-ethyl-3-phenylglutarimide]",Desmolase inhibition,[1],+ + +
CCC1(c2ccccn2)CCC(=O)NC1=O (stereo not shown) [drawing 11],IC50 Desmolase,[1]; 7 micromolar (14C) cholesterol,None
same,IC50 Aromatase,[2],None
CCC1(c2ccccn2)CCC(=O)NC1=O (stereo not shown) [3-ethyl-3-(2-pyridyl)-glutarimide],"sedative, hypnotic or anti-convulsive effect",[3],sedative and hypnotic effect
"CCC1(c2ccccc2)CCC(=O)NC1=O (stereo not shown) [glutethimide, 3-ethyl-3-phenylglutarimide]","sedative, hypnotic or anti-convulsive effect",[3],sedative and hypnotic agent
CCC1(c2ccnc(C(C)(C)C)c2)CCC(=O)NC1=O (stereo not shown) [Example 4],IC50 Desmolase,[1]; 7 micromolar (14C) cholesterol,None
same,IC50,[2]; [10],20 µM
"C1CCc2nnnn2CC1 [Pentylenetetrazol, pentylenetetrazol, reference compound]",convulsant activity,"[4]; 50 mg/kg after NaCl vehicle, within 5 minutes","Increased motor activity was followed by tonic convulsions, then severe clonic extensor convulsions which caused death"
"CCC1(c2ccncc2)CCC(=O)NC1=O (stereo not shown) [3-ethyl-3-(4-pyridyl)glutarimide, 3-ethyl-3-(4-pyridyl)-2,6-piperidinedione]",Desmolase inhibition (in words),[1],inhibits aromatase but not desmolase
same,IC50 Desmolase,[1]; 7 micromolar (14C) cholesterol,None
same,time within which salt came out of solution,[5]; 50 mg,≤ 15 min
same,percentage of tumours which regress (in words),[6],shows a similar effect
same,No. tumours grown by more than 100%,[6],8 tumours
same,No. tumours grown by up to 100%,[6],6 tumours
same,No. tumours regressed but by less than 50%,[6],3 tumours
same,No. tumours regressed by 50% or more,[6],9 tumours
same,No. tumours with no change,[6],1 tumours
same,inhibition of tumour growth (in words),[6]; [11],at least as effective an inhibitor of tumour growth in this assay as aminoglutethimide
same,effect on motor co-ordination (in words),[7]; 300 mg/kg i.p.,little difference from the control
same,effect on motor co-ordination (in words),[7]; 400 mg/kg i.p.,"the mice became more rigid, and while falling off the faster rod more frequently they tended to slump round the slowly rotating rod, and so stay on for a longer time"
same,Falls/2 min,"[7]; 1 r.p.m., 15 min, 300 mg/kg i.p.",0.6 ± 0.3 Falls/2 min
same,Falls/2 min,"[7]; 1 r.p.m., 15 min, 400 mg/kg i.p.",0.8 ± 0.4 Falls/2 min
same,Falls/2 min,"[7]; 1 r.p.m., 30 min, 400 mg/kg i.p.",0.4 ± 0.2 Falls/2 min
same,Falls/2 min,"[7]; 3 r.p.m., 15 min, 300 mg/kg i.p.",1.5 ± 0.5 Falls/2 min
same,Falls/2 min,"[7]; 3 r.p.m., 15 min, 400 mg/kg i.p.",4.8 ± 1.0 Falls/2 min
same,Falls/2 min,"[7]; 3 r.p.m., 30 min, 300 mg/kg i.p.",2.0 ± 0.2 Falls/2 min
same,Falls/2 min,"[7]; 3 r.p.m., 30 min, 400 mg/kg i.p.",3.6 ± 1.3 Falls/2 min
same,time of peak effect after injection,[7],15 min
same,prevention of pentylenetetrazol-induced convulsions,"[4]; 400, 300 and 200 mg/kg i.p.",None of these doses prevented the pentylenetetrazol-induced convulsions
same,anti-convulsant side-effects,[4]; [11],lower than that of aminoglutethimide
same,Abnormal gait,[8]; 200 mg/kg i.p.,-
same,Corneal reflex,[8]; 200 mg/kg i.p.,+
same,Flexor reflex,[8]; 200 mg/kg i.p.,+
same,Grooming,[8]; 200 mg/kg i.p.,-
same,Motor activity,[8]; 200 mg/kg i.p.,N
same,Righting reflex,[8]; 200 mg/kg i.p.,+
same,Tremors,[8]; 200 mg/kg i.p.,-
same,Twitches,[8]; 200 mg/kg i.p.,-
same,observable differences from control mice (in words),[8]; 200 mg/kg i.p.,no grossly observable differences from the control mice
same,Passivity,[8]; 200 mg/kg i.p.,0
same,Abnormal gait,[8]; 300 mg/kg i.p.,-
same,Corneal reflex,[8]; 300 mg/kg i.p.,+
same,Flexor reflex,[8]; 300 mg/kg i.p.,+
same,Grooming,[8]; 300 mg/kg i.p.,+
same,Motor activity,[8]; 300 mg/kg i.p.,N
same,Righting reflex,[8]; 300 mg/kg i.p.,+
same,Tremors,[8]; 300 mg/kg i.p.,-
same,Twitches,[8]; 300 mg/kg i.p.,-
same,spontaneous motor activity and struggle response (in words),[8]; 300 mg/kg i.p.,some mice showed slight reduction in spontaneous motor activity and diminished struggle response
same,Corneal reflex,[8]; 400 mg/kg i.p.,+
same,Flexor reflex,[8]; 400 mg/kg i.p.,+
same,Grooming,[8]; 400 mg/kg i.p.,+
same,Motor activity,[8]; 400 mg/kg i.p.,Dec
same,Righting reflex,[8]; 400 mg/kg i.p.,+
same,Tremors,[8]; 400 mg/kg i.p.,-
same,Twitches,[8]; 400 mg/kg i.p.,-
same,"activity, passivity and hindlimb control (in words)",[8]; 400 mg/kg i.p.,"all mice were noticeably less active, more passive and had lost some control of their hindlimbs"
same,reflexes (in words),[8]; 400 mg/kg i.p.,"All reflexes were still evident and the augmented flexor reflex, as had been noted with APG and CPZ-treated animals, was not present"
same,Passivity,[8]; 400 mg/kg i.p.,3
same,lethality,"[8]; 500 mg/kg i.p., three mice",lethal to the three mice tested
same,sedative side-effects,[8]; [11],lower than that of aminoglutethimide
CCC1(c2cccnc2)CCC(=O)NC1=O (stereo not shown),IC50 Desmolase,[1]; 7 micromolar (14C) cholesterol,None
same,IC50 Aromatase,[2]; [10],None
"CCC1(c2ccc(N)cc2)CCC(=O)NC1=O (stereo not shown) [aminoglutethimide, 3-ethyl-3-(4-aminophenyl)glutarimide, reference compound]",Desmolase inhibition,[1],+ + +
same,IC50,[1]; 7 micromolar (14C) cholesterol,30 µM
same,time after which salt precipitated from solution,[5]; 40 mg in 2 ml,> 2 h
same,percentage of tumours which regress (in words),[6],causes an increase in the percentage of tumours which regress
same,No. tumours grown by more than 100%,[6],5 tumours
same,No. tumours grown by up to 100%,[6],2 tumours
same,No. tumours regressed but by less than 50%,[6],3 tumours
same,No. tumours regressed by 50% or more,[6],4 tumours
same,No. tumours with no change,[6],0 tumours
same,inhibition of desmolase,[9],also inhibits the enzyme desmolase
same,effect on motor co-ordination (in words),[7]; 100 mg/kg i.p. (Table 3),pronounced effect on motor co-ordination. Most of the mice were heavily sedated and thus completely unable to maintain themselves on the rod at either speed
same,Falls/2 min,"[7]; 1 r.p.m., 15 min, 100 mg/kg i.p.",18.5 ± 3.5 Falls/2 min
same,Falls/2 min,"[7]; 1 r.p.m., 30 min, 100 mg/kg i.p.",4.8 ± 2.0 Falls/2 min
same,Falls/2 min,"[7]; 3 r.p.m., 15 min, 100 mg/kg i.p.",27.0 ± 2.0 Falls/2 min
same,time of peak effect after injection,[7],15 min
same,prevention of pentylenetetrazol-induced convulsions,"[4]; i.p., dose not stated",prevented convulsions
same,Corneal reflex,[8]; 100 mg/kg i.p.,+
same,Flexor reflex,[8]; 100 mg/kg i.p.,Inc
same,Grooming,[8]; 100 mg/kg i.p.,+
same,Motor activity,[8]; 100 mg/kg i.p.,Dec
same,Righting reflex,[8]; 100 mg/kg i.p.,+
same,Tremors,[8]; 100 mg/kg i.p.,-
same,Twitches,[8]; 100 mg/kg i.p.,-
same,"corneal, righting and flexor reflexes (in words)",[8]; 100 mg/kg i.p.,"Corneal, righting and flexor reflexes were still apparent"
same,sedation (in words),[8]; 100 mg/kg i.p.,marked sedation
same,flexor reflex (in words),"[8]; 100 mg/kg i.p., compared to untreated animals",slightly augmented
same,Passivity,[8]; 100 mg/kg i.p.,3
same,sleep (in words),"[8]; 200 mg/kg i.p., three animals",all fell asleep within a few minutes of the injection
CN(C)CCCN1c2ccccc2Sc2ccc(Cl)cc21 [chlorpromazine],unpredictable jumping and darting movements,"[8]; 10 mg/kg i.p., particularly on the rotarod",5 out of 8
"CCC1(c2cccc(N)c2)CCC(=O)NC1=O (stereo not shown) [m-aminoglutethimide, 3-ethyl-3-(3-aminophenyl)glutarimide]",Desmolase inhibition,[1],+ + +
same,Aromatase inhibition,[2],+
